Source: patent publication US20090082249A1, “NUTRITIONAL SUPPLEMENT FOR A CATEGORY OF HIV PATIENTS” (N.V. Nutricia, priority 2005, published 2009)

System: intestinal tight junction permeability
Test: Inflammatory mediated intestinal tight junction permeability

With `CCCCC/C=C\C/C=C\C/C=C\CCCCC(=O)O` [GLA, gamma linolenic acid] the “reduction of inflammatory mediated intestinal tight junction permeability” value was “effectively reduce”.
